Measured values taken from patent US9249085B2, “Aniline derivatives, their preparation and their therapeutic application” (FOVEA PHARMACEUTICALS, priority 2011, dated 2016).
≈ marks a conversion by molar mass, not a printed value.

What was measured:
[1] = Solubility at equilibrium; format: physicochemical; details: thermodynamic from solid; in the diluent, room temperature, n=1, HPLC quantification
Experimental: Solubility of the test materials was evaluated on n=1 trial, following the procedure below:
2.5 mg of each compound for solubility testing were dissolved in 5 mL of the diluent, an initial concentration of 500 ug/mL. The mixture was first vortexed for 15 seconds to allow a good wetting of the API, then sonicated for 5 minutes to promote solubilisation. The vortex/sonication cycle was repeated 3 times. The suspension was stirred at room temperature using a magnetic stirrer at 300 rpm. This mixture is observed at 4 h, 24 h and 48 h to determine if the test compound has dissolved. At each time point if the compound is completely solubilised a further 5 mg of the test compound is added and the process repeated.
When no more test compound will dissolve in the diluent, an aliquot of 0.5 mL of the suspension was withdrawn and centrifuged 3×2 min at 13400 rpm. The supernatant for HPLC quantification was filtered using 0.2 μm Pall Aerodisc Nylon 13 mm membrane and quantified by comparing to the calibration curve, using the method: column: Nucleodur C18 ISIS 3 μm 4.6×125 mm, Mobile Phase (CH3COOH 0.05% in H2O and ACN), Flow rate: 1 ml/min, Wavelength: λ=240 nm (IIa and IIc) or […] (IId), Injected volume: 10 μl, Gradient of concentration: from 30% B to 100% B in 6 min.

[2] = test system: Laser-Induced Hypertensive Cynomolgus Monkey; assay: Intraocular pressure in laser-induced hypertensive cynomolgus monkey; format: in vivo; details: 0.01% topical, 50 μl drop to glaucomatous eye once daily for 5 days; FIG. 1
Experimental: Laser-Induced Hypertensive Cynomolgus Monkey
Ten adult female cynomolgus monkeys, each weighing 3-5 kg, in which glaucoma had been induced unilaterally by diode laser photocoagulation of the mid-trabecular meshwork, were used in this study.
Intraocular pressure (IOP) was measured at 0 hr (before drug administration) and then hourly until 6 hrs after drug administration on one baseline day, one vehicle-treatment day, and treatment days 1, 3, and 5 with 0.01% of compound II(d).
Compound II(d) was tested in two groups of 4 monkeys for a total of 8 monkeys. Following one baseline day (untreated) and one vehicle-treatment day (50 μl (25 μl×2), drop of vehicle to the glaucomatous eye at 9:30 (a 50 μl drop (25 μl×2) of compound (II(d)) were topically applied to the glaucomatous eye only once daily at 9:30 am for 5 consecutive days.
Slit-lamp examination for the detection of aqueous humor flare and cells was performed in a dark room before drug administration and at 1, 3 and 5 hrs after dosing on baseline day and at the same times on treatment days 1, 3 and 5.
Two-tailed paired and unpaired t test and the ANOVA test were used for statistical analysis.

[3] = target: recombinant human prostanoid EP2 receptor (Homo sapiens (Human), UniProt P43116); assay: Human prostanoid EP2 receptor cellular functional assay (cAMP, HTRF); format: cell-based
Experimental: Test 1.2: Human Prostanoid EP2 Receptor Cellular Functional Assay
Human CHO cells expressing the recombinant human prostanoid EP2 receptor were suspended in assay medium (HBSS buffer (Invitrogen) containing 20 mM HEPES (pH7.4) and 500 μM isobutyl-methylxanthine IBMX) and plated out to yield approximately 1×10^4 cells/well in a 96-well. Following this, cells were incubated with agonists for 30 min in the presence of the test compounds. For stimulated control measurements, separate assay wells contain 10 μM PGE2 (control specific agonist). All incubations were carried out at 37° C. in a 5% CO2 atmosphere. Following incubation, the amount of cAMP in each well was determined by HTRF method. The cells are lysed and the fluorescence acceptor (D2-labeled cAMP) and fluorescence donor (anti-cAMP antibody labeled with europium cryptate) are added. After 60 min at room temperature, the fluorescence transfer is measured at λ ex=337 nm and λ em=620 and 665 nm using a microplate reader (Rubystar, BMG).
The cAMP concentration is determined by dividing the signal measured at 665 nm by that measured at 620 nm (ratio).
The standard reference agonist PGE2 was tested at several concentrations to generate a concentration-response curve to determined EC50.
Analysis and Expression of Results
The results are expressed as a percent of control specific agonist response ((measured specific response/control specific agonist response)×100) obtained in the presence of the test compounds. The EC50 values (concentration producing a half-maximal specific response) were determined by non-linear regression analysis of the concentration-response curves generated with mean replicate values using Hill equation curve fitting (Y=D+[(A−D)/(1+(C/C50)nH)], where Y=specific response, D=minimum specific response, A=maximum specific response, C=compound concentration, and C50=EC50 and nH=slope factor). This analysis was performed using a software developed at Cerep (Hill software) and validated by comparison with data generated by the commercial software SigmaPlot® 4.0 for Windows® (© 1997 by SPSS Inc.).

recombinant human prostanoid EP2 receptor, sequence (P43116 whole entry): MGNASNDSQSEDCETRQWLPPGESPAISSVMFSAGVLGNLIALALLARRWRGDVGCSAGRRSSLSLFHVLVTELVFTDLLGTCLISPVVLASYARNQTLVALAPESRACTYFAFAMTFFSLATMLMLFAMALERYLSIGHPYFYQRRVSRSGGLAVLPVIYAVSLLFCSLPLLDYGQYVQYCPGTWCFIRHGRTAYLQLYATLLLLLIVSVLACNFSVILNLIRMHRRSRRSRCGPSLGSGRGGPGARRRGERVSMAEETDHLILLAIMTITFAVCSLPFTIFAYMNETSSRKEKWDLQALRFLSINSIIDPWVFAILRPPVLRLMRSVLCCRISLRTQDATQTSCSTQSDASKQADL

solubility [1] [µg/mL]	EC50 ([3]; CHO cells expressing recombinant human EP2, cAMP by HTRF, 30 min, 37° C., read-out: In vitro functional assay EP2 (h) EC50) [nM]	In vitro functional assay EP2 (h) % response ([3]; percent of control specific agonist response (10 μM PGE2)) [%]	SMILES	overall IOP reduction [2] [%]
8120 (≈ 18.7 mM)			CCOC(=O)COc1ccc(F)c(NCc2cc(-c3cccc(F)c3)ccc2F)c1F [II(a), ethyl 2-[2,4-difluoro-3-[[2-fluoro-5-(3-fluorophenyl)phenyl]methylamino]phenoxy]acetate]	
542 (≈ 1.13 mM)			O=C(O)COc1cccc(CN(Cc2ccc(-n3cccn3)cc2)S(=O)(=O)c2cccnc2)c1 [PF-04217329, taprenepag, reference compound]	
711 (≈ 1.59 mM)	> 300	44	CC(C)OC(=O)COc1ccc(F)c(NCc2cc(-c3cccc(F)c3)ccc2F)c1F [II(d), Isopropyl 2-[2,4-difluoro-3-[[2-fluoro-5-(3-fluorophenyl)phenyl]methylamino]phenoxy]acetate]	22
6780 (≈ 16.2 mM)			COC(=O)COc1ccc(F)c(NCc2cc(-c3cccc(F)c3)ccc2F)c1F [II(c), Methyl 2-[2,4-difluoro-3-[[2-fluoro-5-(3-fluorophenyl)phenyl]methylamino]phenoxy]acetate]	
